Measurements taken from US10464928B2, “Amino pyrimidine SSAO inhibitors” (Eli Lilly and Company, priority 2016, dated 2019).

Assays:
[1] = test system: SSAO activity in rat plasma and liver tissues; assay: SSAO Target Engagement (residual SSAO activity in rat plasma and liver after dosing); type: in vivo; conditions: doses 0.005-15 mg/kg
Method: The SSAO activity in rat plasma and liver tissues are measured using the MAO-Glo™ assay kit from Promega (V1402). The residual SSAO activity in rats after compound treatment is estimated by measuring the total amine oxidase activity in plasma or liver lysates that are insensitive to the presence of the MAO inhibitor Clogyline and Pargyline. Rats are administered the compound of Example 2 at the doses of 15, 3, 0.6, 0.12, 0.025, 0.005 mg/kg. The control group is administered with the same volume (2 ml/kg) of the dosing vehicle (hydroxyethyl cellulose 1% w/v, 0.25% Tween 80). Plasma and liver at 2 or 24 hours post compound treatment are harvested and stored at −78° C. until analysis. Tissue lysates are prepared by homogenization in a lysis buffer (20 mM HEPES, pH 7.4, 150 mM NaCl, 1 mM EDTA, 1 mM EGTA, 1% Triton X-100 and 1× Roche Complete protease inhibitor tablet). Tissue particles are removed by centrifugation at 12,000 rpm at 4° C. for 30 minutes. 40 μl of plasma or liver lysates is incubated with Clogyline (10 μM) and Pargyline (10 μM) for 20 minutes at room temperature before the addition of the luminogenic substrate (50 μM) for 60 minutes. The product generated is quantified according to the manufacture's procedure. […] The compound of Example 2 was evaluated in the protocol essentially as described above administered at various doses.

[2] = test system: NASH and fibrosis induced by 3H diet; assay: Mouse Model of NASH and Fibrosis Induced by 3H Diet; type: in vivo, Male C57BL/6N mice; conditions: for Perisinusoidal fibrosis Left, Score (0-3) / Hepatic inflammation Left, Score (0-3) / Macrovesicular vaculation Left, Score (0-3): left lobe; for Perisinusoidal fibrosis Left, Score (0-3): vehicle 2.5 ± 0.2; for Hepatic inflammation Left, Score (0-3) / Macrovesicular vaculation Left, Score (0-3) / Macrovesicular vaculation Right, Score (0-3): vehicle 2.8 ± 0.1; for Perisinusoidal fibrosis Right, Score (0-3) / Hepatic inflammation Right, Score (0-3) / Macrovesicular vaculation Right, Score (0-3): right lobe; for Perisinusoidal fibrosis Right, Score (0-3): vehicle 2.3 ± 0.1; for Hepatic inflammation Right, Score (0-3): vehicle 2.7 ± 0.1
Method: Male C57BL/6N mice are fed with D09100301 diet (Research Diets, 40% fat, 2% cholesterol, 24% fructose, (the, high fat, high cholesterol and high fructose, the “3H diet”) for 150 days. Each mouse is then singly housed after 5 days for an acclimation period. Plasma alanine aminotransferase (ALT) and cytokeratin 18 (CK18) are measured. After one week of recovery, the mice are randomized into 5 groups based on their ALT values, CK18 values, and body weight. […] Blood is collected from mice treated with the compound of Example 6 for 76 days 2 hours after the last dose. Compound levels in the plasma are analyzed by mass spectroscopy. […] At the completion of the study, the animals are sacrificed and their livers excised. Two sections of the left and right lobes are fixed in neutral buffered 10% formalin. Liver tissue slides are stained with hematoxylin and eosin (H&E), Sirius red, and Masson's Trichrome to prepare slides for pathological analysis. All specimens are examined microscopically and scored as a modified Brunt score NASH Activity Score. Scores are based on the grading scheme and end-points as described in Brunt E. M, et al., “Histopathology of nonalcoholic fatty liver disease,” World J. of Gastroenterol, 2010, 16(42), 5286-5296. Group means are then calculated for each individual end-point. The following endpoints are used to characterize the fast food model of NASH in mice as modified from NASH endpoints (See Brunt, E. M. “Histopathology of nonalcoholic fatty liver disease,” Clin Liver Dis., 2009, 13, 533-544 and Brunt, E. M, et al., “Nonalcoholic steatohepatitis: A proposal for grading and staging the histological lesions”, Am J Gastroenterology, 1999, 94(9), 2467-2474.

[3] = Plasma compound level in 3H diet mice by mass spectroscopy; type: in vivo, Male C57BL/6N mice; conditions: treated mice, all doses
Method: Male C57BL/6N mice are fed with D09100301 diet (Research Diets, 40% fat, 2% cholesterol, 24% fructose, (the, high fat, high cholesterol and high fructose, the “3H diet”) for 150 days. Each mouse is then singly housed after 5 days for an acclimation period. Plasma alanine aminotransferase (ALT) and cytokeratin 18 (CK18) are measured. After one week of recovery, the mice are randomized into 5 groups based on their ALT values, CK18 values, and body weight. Animals of each group are administrated either vehicle (0.5% methylcellulose (MC)+0.25% Tween 80 in distilled water) or the compound of Example 6 (at a 0.06, 2, 6, and 20 mg/kg dose) once daily in a volume of 5 ml/kg for 11 weeks. Blood is collected from mice treated with the compound of Example 6 for 76 days 2 hours after the last dose. Compound levels in the plasma are analyzed by mass spectroscopy.

## Cl.Cl.NC/C(=C\F)COc1cnc(N2CCC(O)CC2)nc1 [Example 2, 1-[5-[(E)-2-(Aminomethyl)-3-fluoro-allyloxy]pyrimidin-2-yl]piperidin-4-ol dihydrochloride]
[1]
  SSAO activity in rat plasma and liver (result in words): dose-dependently inhibits SSAO activity

## Cl.Cl.NC/C(=C\F)COc1cnc(N2CC[C@H](O)C2)nc1 [Example 6, (3S)-1-[5-[(E)-2-(Aminomethyl)-3-fluoro-allyloxy]pyrimidin-2-yl]pyrrolidin-3-ol; Dihydrochloride]
[2]; 0.6 mg/kg once daily 11 weeks
  Perisinusoidal fibrosis Left, Score (0-3): 2.4 ± 0.2
  Hepatic inflammation Left, Score (0-3): 2.6 ± 0.1
  Macrovesicular vaculation Left, Score (0-3): 2.5 ± 0.1
  Perisinusoidal fibrosis Right, Score (0-3): 1.9 ± 0.2
  Hepatic inflammation Right, Score (0-3): 2.5 ± 0.1
  Macrovesicular vaculation Right, Score (0-3): 2.6 ± 0.1
[2]; 2 mg/kg once daily 11 weeks
  Perisinusoidal fibrosis Left, Score (0-3): 2.5 ± 0.2
  Hepatic inflammation Left, Score (0-3): 2.5 ± 0.1
  Macrovesicular vaculation Left, Score (0-3): 2.5 ± 0.1
  Perisinusoidal fibrosis Right, Score (0-3): 1.8 ± 0.2
  Hepatic inflammation Right, Score (0-3): 2.6 ± 0.1
  Macrovesicular vaculation Right, Score (0-3): 2.7 ± 0.1
[2]; 6 mg/kg once daily 11 weeks
  Perisinusoidal fibrosis Left, Score (0-3): 2.6 ± 0.2
  Hepatic inflammation Left, Score (0-3): 2.5 ± 0.2
  Macrovesicular vaculation Left, Score (0-3): 2.9 ± 0.1
  Perisinusoidal fibrosis Right, Score (0-3): 2.1 ± 0.3
  Hepatic inflammation Right, Score (0-3): 2.6 ± 0.2
  Macrovesicular vaculation Right, Score (0-3): 2.7 ± 0.1
[2]; 20 mg/kg
  hepatic inflammation (result in words): significant decrease
  macrovesicular vaculation (result in words): significant decrease
  perisinusoidal fibrosis (result in words): significant decrease
[2]; 20 mg/kg once daily 11 weeks
  Perisinusoidal fibrosis Left, Score (0-3): 1.9 ± 0.2
  Hepatic inflammation Left, Score (0-3): 2.1 ± 0.1
  Macrovesicular vaculation Left, Score (0-3): 2.4 ± 0.2
  Perisinusoidal fibrosis Right, Score (0-3): 1.5 ± 0.2
  Hepatic inflammation Right, Score (0-3): 2.1 ± 0.1
  Macrovesicular vaculation Right, Score (0-3): 2.3 ± 0.1
[2]; 6 and 20 mg/kg
  triglyceride levels in blood (result in words): decreased
[2]; all groups of treated mice vs vehicle
  ALT (result in words): significant decrease
[3]
  plasma compound levels (result in words): dose-dependent increase
